Assay results from US11040026B2, “Muscarinic M1 receptor positive allosteric modulators” (SUVEN LIFE SCIENCES LIMITED, priority 2016, dated 2021).

What was measured:
[1] = Rodent brain penetration study; assay type: in vivo, Male Wistar rats; settings: male, Wistar, brain and plasma, po; rat, 3 mg/kg, p.o., brain-plasma ratio; read-out: Single dose Rat Brain Penetration (Cb/Cp) at 3 mg/kg, p.o.
Procedure: Rodent Brain Penetration Study
Male Wistar rats (260±40 grams) were used as experimental animals. Three animals were housed in each cage. Animals were given water and food ad libitum throughout the experiment and maintained on a 12 hours light/dark cycle.
Brain penetration was determined in discrete manner in rats. One day prior to dosing day, male Wistar rats were acclimatized and randomly grouped according to their weight. At each time point (0.50, 1 and 2 hours) n=3 animals were used.
The test compounds were suitably preformulated and administered orally at (free base equivalent) 3 mg/kg. Blood samples were removed via cardiac puncture by using isoflurane anesthesia. The animals were sacrificed to collect brain tissue. Plasma was separated and brain samples were homogenized and stored frozen at −20° C. until analysis. The concentrations of the test compounds in plasma and brain were determined using LC-MS/MS method.
The test compounds were quantified in plasma and brain homogenate by qualified LC-MS/MS method using suitable extraction technique. The test compounds were quantified in the calibration range of 1-500 ng/mL in plasma and brain homogenate. Study samples were analyzed using calibration samples in the batch and quality control samples spread across the batch. Extent of brain-plasma ratio (Cb/Cp) was calculated

[2] = Rodent pharmacokinetic study; assay type: in vivo, Male Wistar rats; settings: rat; for AUC(0-t) / clearance / half-life / Cmax: male, Wistar, plasma; for F: oral (gavage) 3 mg/kg vs intravenous 1 mg/kg
Procedure: Rodent Pharmacokinetic Study
Male Wistar rats (260±50 grams) were used as experimental animals. Animals were housed individually in polypropylene cage. Two days prior to study, male Wistar rats were anesthetized with isoflurane for surgical placement of jugular vein catheter. Rats were randomly divided for oral (3 mg/kg) and intravenous (1 mg/kg) dosing (n=3/group) and fasted overnight before oral dosing (p.o.). However, rats allocated to intravenous dosing food and water was provided ad libitum.
At pre-determined point, blood was collected through jugular vein and replenished with an equivalent volume of normal saline. Collected blood was transferred into a labeled eppendorf tube containing 10 μL of heparin as an anticoagulant. Typically blood samples were collected at following time points: 0.08, 0.25, 0.5, 1, 2, 4, 6, 8, and 24 hours post dose. Blood was centrifuged at 4000 rpm for 10 minutes. Plasma was separated and stored frozen at −80° C. until analysis. The concentrations of the test compounds were quantified in plasma by qualified LC-MS/MS method using suitable extraction technique. The test compounds were quantified in the calibration range around 1-1000 ng/mL in plasma. Study samples were analyzed using calibration samples in the batch and quality control samples spread across the batch.
Pharmacokinetic parameters Cmax, AUCt, T1/2, Clearance and Bioavailability (F) were calculated by non-compartmental model using standard non-compartmental model by using Phoenix WinNonlin 6.0.4 version Software package.

[3] = test system: Male Wistar rats; assay: Object recognition task model; assay type: in vivo; settings: rat, p.o.; for Exploration time mean ± S.E.M, Familiar object / Exploration time mean ± S.E.M, Novel object: choice trial 24 hours after T1
Procedure: Object Recognition Task Model
Male Wistar rats (8-10 weeks old) were used as experimental animals. Four animals were housed in each cage. Animals were kept on 20% food deprivation from a day prior to experimentation. Water was provided ad libitum throughout the experiment. Animals were maintained on a 12 hours light/dark cycle in temperature and humidity controlled room. The experiment was carried out in an circular or square arena made up of acrylic. Rats were habituated to individual arenas for up to 1 hour in the absence of any objects on day 1.
One group of 12 rats received vehicle and another set of animals received test compounds, before familiar (T1) and choice (T2) trials. During the familiarization phase, (T1), the rats were placed individually in the arena for 3 minutes, in which two identical objects (a1 and a2) were positioned 10 cm from the wall. 24 hours after T1, trial for long-term memory test was performed. The same rats were placed in the same arena as they were placed in T1 trial. During the choice phase (T2) rats were allowed to explore the arena for 3 minutes in presence of a copy of familiar object (a3) and one novel object (b). During the T1 and T2 trial, explorations of each object (defined as sniffing, licking, chewing or having moving vibrissae whilst directing the nose towards the object at a distance of less than 1 cm) were recorded using stopwatch.
T1 is the total time spent exploring the familiar objects (a1+a2).
T2 is the total time spent exploring the familiar object and novel object (a3+b).
The object recognition test was performed as described in Behav. Brain Res., 1988, 31, 47-59.

[4] = molecular target: T1, muscarinic M1 receptor (Homo sapiens, UniProt P11229); assay: Allosteric potency EC50 for muscarinic M1 receptor (CHO pCRE-Luc reporter assay); assay type: cell-based; settings: in presence of EC20 of acetylcholine; CHO cells, luciferase reporter, 4 hours
T1 sequence (P11229 1-460): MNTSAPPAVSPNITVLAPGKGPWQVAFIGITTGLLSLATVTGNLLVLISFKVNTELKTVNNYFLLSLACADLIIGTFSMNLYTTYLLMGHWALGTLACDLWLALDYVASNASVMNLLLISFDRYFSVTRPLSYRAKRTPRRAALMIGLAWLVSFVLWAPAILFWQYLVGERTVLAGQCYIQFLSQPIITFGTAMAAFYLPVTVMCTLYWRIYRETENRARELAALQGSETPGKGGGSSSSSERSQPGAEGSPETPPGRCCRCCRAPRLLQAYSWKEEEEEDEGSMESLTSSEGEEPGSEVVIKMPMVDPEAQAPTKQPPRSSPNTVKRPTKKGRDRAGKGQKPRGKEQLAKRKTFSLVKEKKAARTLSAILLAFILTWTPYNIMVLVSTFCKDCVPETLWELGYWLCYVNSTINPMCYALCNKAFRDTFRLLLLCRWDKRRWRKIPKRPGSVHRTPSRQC
Summary of the method: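 Stable CHO line with recombinant human M1 and cAMP-response-element luciferase reporter, serum-starved overnight. Test compounds at increasing concentrations added with an EC20 of acetylcholine, 4 h at 37 °C; luminescence read after lysis. EC50 = concentration giving 50% stimulation of luciferase activity in the presence of EC20 acetylcholine.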

[5] = molecular target: T1, muscarinic M1 receptor; settings: literature report; cited from earlier work
[6] = cited from earlier work

Row | Structure (SMILES) | Kp [1] | AUC(0-t) ([2]; intravenous (bolus), 1 mg/kg) [ng·h/mL] | clearance ([2]; intravenous (bolus), 1 mg/kg) [mL/min/kg] | half-life ([2]; intravenous (bolus), 1 mg/kg) [h] | AUC(0-t) ([2]; oral (gavage), 3 mg/kg) [ng·h/mL] | Cmax ([2]; oral (gavage), 3 mg/kg) [ng/mL] | half-life ([2]; oral (gavage), 3 mg/kg) [h] | F [2] [%] | Inference ([3]; 10 mg/kg) | Exploration time mean ± S.E.M, Familiar object ([3]; 10 mg/kg) [s] | Exploration time mean ± S.E.M, Novel object ([3]; 10 mg/kg) [s] | EC50 [4] [nM] | Inference ([3]; 3 mg/kg) | Exploration time mean ± S.E.M, Familiar object ([3]; 3 mg/kg) [s] | Exploration time mean ± S.E.M, Novel object ([3]; 3 mg/kg) [s] | Selectivity for muscarinic M1 receptor over the other muscarinic receptor subtypes [5] | Efficacy in preclinical models of cognition ([6]; Psychopharmacology, 2013, 225(1), 21-30) | Gastrointestinal side effects ([6]; at doses equal to or less than a fivefold margin from the minimum effective dose required to improve cognition)
1 | Cn1ccc2c(Cc3ccc(F)cc3)cc(C(=O)N[C@@H]3COCC[C@@H]3O)nc21 (single isomer, unassigned; isomer-i) [Example 65, cis-N-(4-Hydroxytetrahydropyran-3-yl)-4-(4-fluorobenzyl)-1-methyl-1H-pyrrolo[2,3-b]pyridine-6-carboxamide (Isomer-I)] | 0.32 | – | – | – | – | – | – | – | – | – | – | – | – | – | – | – | – | –
2 | CN1CCOc2c(Cc3ccc(F)cc3)cc(C(=O)N[C@@H]3CCOC[C@H]3O)nc21 (single isomer, unassigned; isomer-ii) [Example 124, trans-N-(3-Hydroxytetrahydropyran-4-yl)-8-(4-fluorobenzyl)-4-methyl-2H-pyrido[3,2-b][1,4]oxazine-6-carboxamide (Isomer-II)] | 0.52 ± 0.05 | 787 ± 130 | 21 ± 3 | 1.1 ± 0.1 | 526 ± 126 | 306 ± 66 | 0.5 | 22 ± 5 | – | – | – | – | – | – | – | – | – | –
3 | Cn1ccc2c(Cc3ccc(Cl)nc3)cc(C(=O)N[C@H]3CCCC[C@@H]3O)nc21 [Example 18, N-[(1S,2S)-2-Hydroxycyclohexyl]-4-(2-chloropyridin-5-ylmethyl)-1-methyl-1H-pyrrolo[2,3-b]pyridine-6-carboxamide] | 0.27 ± 0.06 | 853 ± 109 | 20 ± 3 | 1.3 ± 0.2 | 2710 ± 769 | 887 ± 74 | 3.6 ± 0.1 | 106 ± 30 | Active | 8.00 ± 2.88 | 14.38 ± 1.62 | 38 | – | – | – | – | – | –
4 | CN1CCc2c(Cc3ccnc(F)c3)cc(C(=O)N[C@H]3CCCC[C@@H]3O)nc21 [Example 73, N-[(1S,2S)-2-Hydroxycyclohexyl]-4-(2-fluoropyridin-4-ylmethyl)-1-methyl-2,3-dihydro-1H-pyrrolo[2,3-b]pyridine-6-carboxamide] | – | 742 ± 40 | 22 ± 1 | 1.1 ± 0.3 | 1740 ± 296 | 1100 ± 85 | 1.2 ± 0.1 | 78 ± 13 | – | – | – | 786 | – | – | – | – | – | –
5 | Cl.O=C(N[C@H]1CCCC[C@@H]1O)c1cc(Cc2ccc(F)cc2)c2c(n1)CNCC2 [Example 87, N-[(1S,2S)-2-Hydroxycyclohexyl]-4-(4-fluorobenzyl)-5,6,7,8-tetrahydro[1,7]naphthyridine-2-carboxamide Hydrochloride] | 0.15 ± 0.01 | 224 ± 66 | 79 ± 27 | 1.5 ± 0.1 | 219 ± 70 | 97 ± 39 | 0.7 ± 0.3 | 32 ± 10 | – | – | – | 241 | – | – | – | – | – | –
6 | O=C(N[C@H]1CCCC[C@@H]1O)c1cc(Cc2ccc(F)cc2)c2c(n1)OCCO2 [Example 103, N-[(1S,2S)-2-Hydroxycyclohexyl]-8-(4-fluorobenzyl)-2,3-dihydro-[1,4]dioxino[2,3-b]pyridine-6-carboxamide] | 0.63 ± 0.05 | 791 ± 11 | 21 | 0.7 ± 0.1 | 1090 ± 102 | 825 ± 41 | 0.5 ± 0.2 | 46 ± 4 | – | – | – | 131 | Active | 12.20 ± 1.59 | 19.17 ± 3.01 | – | – | –
7 | CN1CCOc2c(Cc3ccc(F)cc3)cc(C(=O)N[C@H]3CCCC[C@@H]3O)nc21 [Example 120, N-[(1S,2S)-2-Hydroxycyclohexyl]-8-(4-fluorobenzyl)-4-methyl-2H-pyrido[3,2-b][1,4]oxazine-6-carboxamide] | 1.37 ± 0.1 | 593 ± 79 | 28 ± 4 | 1.2 ± 0.3 | 234 ± 76 | 69 ± 12 | 3.5 ± 3.3 | 13 ± 4 | Active | 10.48 ± 1.02 | 15.43 ± 1.23 | 407 | – | – | – | – | – | –
8 | N#CC1(c2ccccn2)CCN(Cc2cc(C(=O)O)c(=O)n3ccccc23)CC1 [PQCA, 1-{[4-cyano-4-(pyridine-2-yl)piperidin-1-yl]methyl}-4-oxo-4H-quinolizine-3-carboxylic acid] | – | – | – | – | – | – | – | – | – | – | – | – | – | – | – | highly selective | efficacious | no gastrointestinal side effects
